Data: ChEMBL document CHEMBL1147777, “Synthesis and antibacterial activity of substituted 1,2,3,4-tetrahydropyrazino [1,2-a] indoles” (2006)
Active and inactive are the calls of the source. The rule behind the calls is not given here.

Key:
[1] = test system: Escherichia coli; assay: MIC per disc against Escherichia coli by disc diffusion method; assay type: functional
[2] = test system: Streptomyces thermovulgaris; assay: MIC per disc against Streptomyces thermonitrificans by disc diffusion method; assay type: functional
[3] = test system: Staphylococcus aureus; assay: MIC per disc in Staphylococcus aureus by disc diffusion method; assay type: functional
[4] = test system: Salmonella typhi; assay: MIC per disc against Salmonella typhi by disc diffusion method; assay type: functional, Salmonella enterica subsp. enterica serovar Typhi
[5] = test system: Pseudomonas aeruginosa; assay: MIC per disc against Pseudomonas aeruginosa by disc diffusion method; assay type: functional
[6] = test system: RBCs; assay: Cytotoxicity against erythrocytes by haemolytic assay at upto 500 ug/ml; assay type: functional, Erythrocyte
[7] = Salmonella enterica subsp. enterica serovar Typhi

Row | Compound | MIC [1] | MIC [2] | MIC [3] | MIC [4] | MIC [5] | Activity [6] | MIC [4, 7]
1 | Cc1c2n(c3ccccc13)CCNC2c1ccc(F)cc1 (stereo not drawn) | 15 µg | 7.5 µg | 30 µg | 30 µg | 30 µg | 5% | 
2 | Cc1c2n(c3ccccc13)CCNC2c1ccc(Br)cc1 (stereo not drawn) | inactive | 15 µg | 15 µg | 60 µg | 60 µg |  | 
3 | Cc1cn2c(cc3ccccc32)c(C)n1 | 60 µg | 60 µg | 60 µg | 60 µg | 60 µg |  | 
4 | COc1cccc(C2NCCn3c2c(C)c2ccccc23)c1 (stereo not drawn) | 30 µg | 15 µg | 60 µg | 30 µg | inactive |  | 
5 | Cc1c2n(c3ccccc13)CCNC2c1cccc(Cl)c1 (stereo not drawn) | inactive | 3.75 µg | inactive |  | 15 µg |  | inactive
6 | Cc1c2n(c3ccccc13)CCNC2c1ccc([N+](=O)[O-])cc1 (stereo not drawn) | 30 µg | 15 µg | 30 µg | 30 µg | 30 µg | 5% | 
7 | Cc1c2n(c3ccccc13)CCNC2c1ccccn1 (stereo not drawn) | inactive | inactive | 3.75 µg |  | inactive |  | inactive
8 | GENTAMICIN | 1 µg | 1 µg | 1 µg |  | 0.5 µg |  | 1 µg
9 | Cc1c2n(c3ccccc13)CCN(Cc1ccccc1)C2 | inactive | 60 µg | 15 µg | 60 µg | 60 µg |  | 
10 | Cc1ccc(C2NCCn3c2c(C)c2ccccc23)cc1 (stereo not drawn) | 15 µg | 30 µg | 30 µg | 15 µg | 60 µg | 5% | 
11 | Cc1cn2c(cc3ccccc32)c(-c2ccccc2)n1 | 60 µg | 60 µg | 60 µg | 60 µg | 60 µg |  | 
12 | Cc1c2n(c3ccccc13)CCNC2c1ccccc1 (stereo not drawn) | inactive | inactive | inactive |  | 3.75 µg |  | inactive
13 | Cc1c2n(c3ccccc13)CCN(Cn1nnc3ccccc31)C2 | inactive | inactive | 30 µg | 60 µg | inactive |  | 
14 | Cc1c2n(c3ccccc13)CCNC2c1cccs1 (stereo not drawn) | inactive | inactive | 60 µg | 30 µg | inactive |  | 
15 | Cc1c2n(c3ccccc13)CCN(C)C2 | inactive | 30 µg | 30 µg | 30 µg | 30 µg |  | 
16 | C[C@H]1c2cccc(O)c2C(=O)C2=C(O)[C@]3(O)C(=O)C(C(N)=O)=C(O)[C@@H](N(C)C)[C@@H]3[C@@H](O)[C@@H]21.Cl [DOXYCYCLINE HYDROCHLORIDE] | 2 µg | 1 µg | 1 µg | 1 µg | 1 µg |  | 
17 | Cc1c2n(c3ccccc13)CCN(CC#N)C2 | inactive | 30 µg | 15 µg | 30 µg | 60 µg |  | 
18 | Cc1ccc(CN2CCn3c(c(C)c4ccccc43)C2)cc1 | inactive | 60 µg | 15 µg | 30 µg | 60 µg |  | 
19 | CCOP(=O)(CN1CCn2c(c(C)c3ccccc32)C1)OCC | inactive | 60 µg | inactive |  | 60 µg |  | inactive
